The record followed here is patent US8892197B2, “Method and apparatus to control conduction through the heart to treat cardiac conditions” (Medtronic, Inc., priority 2005, dated 2014).

The subject of one data set is AVN conduction. Put plainly: AV block duration after ACH bolus, direct AVN injection vs. intravenous, anesthetized canines. Type of data set: in vivo. The text has this:
(§1) This study evaluated the effect of locally administered acetylcholine (ACH) on AVN conduction and refractoriness properties during sinus rhythm and AF. Canines (n=7) were anesthetized, and instrumented to assess atrial and ventricular electrophysiology as well as arterial blood pressure. A custom drug delivery catheter was fixed into the AVN region using a combination of standard electrophysiological mapping techniques and image guided therapy via a cardiac navigation system.

Data set [1] concerns AVN conduction and refractoriness. The data set is described as follows: Incremental ACH infusion into the AVN: ventricular rate during electrically induced AF, AVN refractoriness, intervals, blood pressure. Type of data set: in vivo, Canines. The conditions noted are these: for Ventricular rate during electrically induced AF: infusion into AVN, decreased from 182±32.
Source text: as §1
Subsequently, incremental doses of ACH starting at 10 ug/min were infused into the AVN until complete atrioventricular heart block (AVB) was observed.

[2] abbreviates: Intravenous Bolus (n = 5), identical dose.

Molecules are shown by their SMILES.

For the compound `CC(=O)OCC[N+](C)(C)C` [ACH, acetylcholine], the “AV Block III duration” value in the data set with AVN conduction (Direct AVN Bolus (n = 6)) was found to be 12.30 ± 4.72 min; in the data set with AVN conduction (setting [2]), 0.00 ± 0.00 min. The “Overall AV Block duration (AV block I, II and III)” value in the data set on AVN conduction (Direct AVN Bolus (n = 6)) was 41.19 ± 27.14 min; in the data set with AVN conduction (setting [2]), 0.31 ± 0.43 min. The “PP intervals, HV intervals and blood pressure” value in data set [1] (ACH dose producing first AVB) is “remained unchanged”. The “Time to full reversal of observed effects after stopping ACH infusion” value in data set [1] (after stopping infusion into AVN) was at most 20 min. Further, the “Ventricular rate during electrically induced AF” value is 77±28 bpm in data set [1] (dosage inducing first degree AVB, p<0.05) and 28±8 bpm in data set [1] (dosage inducing third degree AVB, p<0.05). Moreover, the “AVN effective refractory period (ERP)” value in data set [1] (first degree AVB dose, pacing cycle length 400 msec, increased from 186±37, p=0.06) is 282 ± 33 ms. The Wenckebach cycle length in data set [1] (first degree AVB dose, increased from 271±29, p<0.05) was 378 ± 58 ms.
